Laboratory results reported in patent US20120165376A1, “STABILIZED MICROBICIDAL COMPOSITION” (priority 2010, published 2012).

Columns and labels:
Format in all cases: physicochemical
[1] = Storage stability of formulations having 20% DBNPA, 6% BNPD and 1.25% CMI/MI (3:1): oven at 40° C., loss of biocides after 60 days; settings: 6% BNPD
Procedure: These formulations were prepared from salt-free CMI/MI biocide, except as otherwise indicated. They were placed in an oven at 40° C. and analyzed for loss of the biocides after 60 days.

[2] = Storage stability of formulations having 20% DBNPA and 6% BNPD: oven at 45° C., loss after 28 days
Procedure: These formulations were prepared and placed in an oven at 45° C. and analyzed for loss of the biocides after 28 days.

[3] = Storage stability of formulations having 10-20% DBNPA, without BNPD or CMI/MI: oven at 45° C., loss after 28 days
Procedure: These were prepared and placed in an oven at 45° C. and analyzed for loss of the biocides after 28 days. […]=diethylene glycol monomethyl ether.

[4] = Storage stability of formulations having 20% DBNPA and 0.25% CMI/MI (3:1): oven at 45° C., loss after 28 days
Procedure: These formulations were prepared, using salt-free CMI/MI and placed in an oven at 45° C. and analyzed for loss of the biocides after 28 days.

[5] = glycerin 0%, water 10%, TEG-mono-butyl ether 59.5%
[6] = glycerin 0%, water 20%, TEG 49.5%
[7] = glycerin 0%, water 20%, TEG-mono-butyl ether 49.5%
[8] = glycerin 0%, water 30%, TEG 39.5%
[9] = glycerin 0%, water 30%, TEG-mono-butyl ether 39.5%
[10] = glycerin 10%, water 10%, TEG 49.5%
[11] = glycerin 10%, water 20%, TEG-mono-butyl ether 39.5%
[12] = glycerin 10%, water 30%, TEG-mono-butyl ether 29.5%
[13] = glycerin 20%, water 10%, TEG 39.5%
[14] = glycerin 20%, water 20%, TEG 29.5%
[15] = glycerin 0%, water 20%, DPG 54, 20% DBNPA
[16] = glycerin 0%, water 20%, TetEG 54, 20% DBNPA
[17] = glycerin 10%, water 5%, DPG 60, 20% DBNPA
[18] = glycerin 10%, water 5%, TetEG 60, 20% DBNPA
[19] = glycerin 10%, water 10%, DPG 54, 20% DBNPA
[20] = glycerin 10%, water 10%, TetEG 54, 20% DBNPA
[21] = glycerin 20%, water 10%, DPG 44, 20% DBNPA
[22] = glycerin 20%, water 10%, TEG 44, 20% DBNPA
[23] = glycerin 20%, water 10%, TetEG 44, 20% DBNPA
[24] = glycerin 30%, water 5%, DPG 39, 20% DBNPA
[25] = glycerin 30%, water 5%, TetEG 39, 20% DBNPA
[26] = glycerin 30%, water 10%, DPG 34, 20% DBNPA
[27] = glycerin 30%, water 10%, TetEG 34, 20% DBNPA
[28] = glycerin 30%, water […]%, DPG 29, 20% DBNPA, result believed to be erroneous
[29] = glycerin 30%, water […]%, TetEG 29, 20% DBNPA

Structure (SMILES): O=[N+]([O-])C(Br)(CO)CO [BNPD, 2-bromo-2-nitro-1,3-propanediol]
- BNPD loss, % ([1]; glycerin 0%, water 10%, TEG 59.5%): 3%
- BNPD loss, % [1, 5]: 0%
- BNPD loss, % [1, 6]: 1%
- BNPD loss, % [1, 7]: 0%
- BNPD loss, % [1, 8]: 3%
- BNPD loss, % [1, 9]: 3%
- BNPD loss, % [1, 10]: 3%
- BNPD loss, % ([1]; glycerin 10%, water 10%, TEG-mono-butyl ether 49.5%): 3%
- BNPD loss, % ([1]; glycerin 10%, water 20%, TEG 39.5%): 3%
- BNPD loss, % [1, 11]: 3%
- BNPD loss, % [1, 12]: 4%
- BNPD loss, % [1, 13]: 3%
- BNPD loss, % ([1]; glycerin 20%, water 10%, TEG-mono-butyl ether 39.5%): 3%
- BNPD loss, % [1, 14]: 4%
- BNPD loss, % [2, 15]: 1.5%
- BNPD loss, % ([2]; glycerin 0%, water 20%, TEG 54, 20% DBNPA): 7%
- BNPD loss, % [2, 16]: 0%
- BNPD loss, % [2, 17]: 1%
- BNPD loss, % [2, 18]: 6%
- BNPD loss, % [2, 19]: 0.5%
- BNPD loss, % [2, 20]: 8.5%
- BNPD loss, % [2, 21]: 1.5%
- BNPD loss, % [2, 22]: 4%
- BNPD loss, % [2, 23]: 3%
- BNPD loss, % [2, 24]: 1.5%
- BNPD loss, % [2, 25]: 1.5%
- BNPD loss, % [2, 26]: 1%
- BNPD loss, % [2, 27]: 2%
- BNPD loss, % [2, 28]: 12.5^1%
- BNPD loss, % [2, 29]: 3.5%

Structure (SMILES): N#CC(Br)(Br)C(N)=O [DBNPA, 2,2-dibromo-3-nitrilopropionamide]
- DBNPA loss, % ([3]; glycerin 30%, water 5%, TEG 45, 20% DBNPA): 3^ %
- DBNPA loss, % ([3]; glycerin 45%, water 5%, TEG 30, 20% DBNPA): 3^ %
- DBNPA loss, % ([3]; glycerin 65%, water […]%, DEGMME 10, only 10% DBNPA): 95^1%
- DBNPA loss, % ([3]; glycerin 65%, water […]%, TEG 10, only 10% DBNPA): 3^1%
- DBNPA loss, % ([3]; glycerin 65%, water […]%, TetEG 10, only 10% DBNPA): 95^1%
- DBNPA loss, % [1, 5]: 40%
- DBNPA loss, % [1, 6]: 10%
- DBNPA loss, % [1, 7]: 18%
- DBNPA loss, % [1, 8]: 16%
- DBNPA loss, % [1, 9]: 18%
- DBNPA loss, % [1, 10]: 6%
- DBNPA loss, % [1, 11]: 14%
- DBNPA loss, % [1, 12]: 18%
- DBNPA loss, % [1, 13]: 5%
- DBNPA loss, % [1, 14]: 14%
- DBNPA loss, % ([4]; glycerin 0%, water 20%, DPG 59, 20% DBNPA, 0.25% CMI/MI (3:1)): 10%
- DBNPA loss, % ([4]; glycerin 0%, water 20%, TetEG 59, 20% DBNPA, 0.25% CMI/MI (3:1)): 4%
- DBNPA loss, % ([4]; glycerin 10%, water 5%, DPG 64, 20% DBNPA, 0.25% CMI/MI (3:1), result believed to be erroneous): 27^1%
- DBNPA loss, % ([4]; glycerin 10%, water 5%, TetEG 64, 20% DBNPA, 0.25% CMI/MI (3:1)): 2.5%
- DBNPA loss, % ([4]; glycerin 10%, water 10%, DPG 59, 20% DBNPA, 0.25% CMI/MI (3:1)): 7%
- DBNPA loss, % ([4]; glycerin 10%, water 10%, TetEG 59, 20% DBNPA, 0.25% CMI/MI (3:1)): 3.5%
- DBNPA loss, % ([4]; glycerin 20%, water 10%, DPG 49, 20% DBNPA, 0.25% CMI/MI (3:1)): 3.5%
- DBNPA loss, % ([4]; glycerin 20%, water 10%, TEG 49, 20% DBNPA, sample had 1% CMI/MI): 6%
- DBNPA loss, % ([4]; glycerin 20%, water 10%, TetEG 49, 20% DBNPA, 0.25% CMI/MI (3:1)): 3.5%
- DBNPA loss, % ([4]; glycerin 30%, water 5%, DPG 44, 20% DBNPA, 0.25% CMI/MI (3:1)): 6%
- DBNPA loss, % ([4]; glycerin 30%, water 5%, TetEG 44, 20% DBNPA, 0.25% CMI/MI (3:1)): 6%
- DBNPA loss, % ([4]; glycerin 30%, water 10%, DPG 39, 20% DBNPA, 0.25% CMI/MI (3:1)): 4%
- DBNPA loss, % ([4]; glycerin 30%, water 10%, TetEG 39, 20% DBNPA, 0.25% CMI/MI (3:1)): 2.5%
- DBNPA loss, % ([4]; glycerin 30%, water 20%, DPG 29, 20% DBNPA, 0.25% CMI/MI (3:1)): 4%
- DBNPA loss, % ([4]; glycerin 30%, water 20%, TetEG 29, 20% DBNPA, 0.25% CMI/MI (3:1)): 3.5%
- DBNPA loss, % ([4]; glycerin 30%, water […]%, DPG 34, 20% DBNPA, 0.25% CMI/MI (3:1)): 3.5%
- DBNPA loss, % ([4]; glycerin 30%, water […]%, TetEG 34, 20% DBNPA, 0.25% CMI/MI (3:1)): 3%
- DBNPA loss, % [2, 15]: 3.5%
- DBNPA loss, % [2, 16]: 2%
- DBNPA loss, % [2, 17]: 7%
- DBNPA loss, % [2, 18]: 5%
- DBNPA loss, % [2, 19]: 6%
- DBNPA loss, % [2, 20]: 7%
- DBNPA loss, % [2, 21]: 3%
- DBNPA loss, % [2, 22]: 7%
- DBNPA loss, % [2, 23]: 7%
- DBNPA loss, % [2, 24]: 2%
- DBNPA loss, % [2, 25]: 2.5%
- DBNPA loss, % [2, 26]: 3%
- DBNPA loss, % [2, 27]: 3%
- DBNPA loss, % [2, 28]: 14^1%
- DBNPA loss, % [2, 29]: 4.5%
